Experiments:
[1] = test system: Cutaneous and Subcutaneous Cancer; assay: Clinical studies using bleomycin sulfate and EPT, cutaneous and subcutaneous cancer; type: in vivo, humans
Head and Neck Cancer = assay: Clinical study of EPT with intralesional bleomycin for head and neck cancers; type: in vivo, humans; design: key to Response Status: Complete Response (CR): Disappearance of all evidence of tumor as determined by physical examination, and/or biopsy.; Partial Response (PR): 50% or greater reduction in tumor volume.; No Response (NR): less than 50% reduction in tumor volume
Description: All of the following patients were treated with bleomycin intratumoral injection and needle arrays of different diameters with six needles. The voltage was set to achieve a nominal electric field strength of 1300 V/cm (the needle array diameter was multiplied by 1300 to give the voltage the generator was set at). The pulse length was 100 μs.
The study was designed as a single center feasibility clinical study in which the efficacy of the EPT procedure in combination with intralesional bleomycin was compared to that for traditional surgery, radiation, and/or systemic chemotherapy. Approximately 50 study subjects were enrolled in the study. All study subjects were assessed prior to treatment by examination and biopsy. Postoperative assessment of study subjects was weekly for 4-6 weeks, and monthly thereafter for a total of 12 months. Approximately 8 to 12 weeks following therapy, a biopsy of the tumor site was performed. Use of CT or MRI scans was utilized in accordance to standard medical follow-up evaluation of HNC subjects.
Tumor evaluation includes measuring the tumor diameter (in centimeters) and estimating its volume (in cubic centimeters). Prior to intratumoral administration of bleomycin sulfate, the tumor site is anesthetized with 1% lidocaine (xylocaine) and 1:100,000 epinephrine. The concentration of bleomycin sulfate injected is 4 units per milliliter, up to a maximum dose of 5 units per tumor. If more than one tumor per subject is treated, a total of 20 units per subject should not be exceeded. The dose of bleomycin administered is to be 1 unit/cm^3 of calculated tumor volume. Approximately ten minutes subsequent to the injection of bleomycin sulfate, the applicator is placed on the tumor and electrical pulses initiated. Each application or an initiation of electrical pulses is referred to as a sequence. The use of EPT is not a contraindication to any subsequent palliative treatment required by the subject.
In this study, success was defined as significant tumor regression in a period of 16 weeks or less without major side effects seen with traditional therapy. There are three possible response outcomes:
Complete Response (CR): Disappearance of all evidence of tumor as determined by physical examination, and/or biopsy. • Partial Response (PR): 50% or greater reduction in tumor volume. • No Response (NR): less than 50% reduction in tumor volume.
If the tumor increases (25% tumor volume) in size, other therapy, if indicated, was instituted per subject's desire.

Panc-3 = assay: EPT of Panc-3 with neocarcinostatin, pre- and post-pulse injection; type: in vivo, nude mice
From the text: The Panc-3 and NSCLC models were utilized with the drug neocarcinostatin (NCS) following the same procedures as outlined above. […] It was believed that due to the low isoelectric point of NCS, electrostatic interaction prevented the drug from entering the tumor cell. Therefore, the experiment was repeated by pulsing first and injecting NCS post-pulse.

[2] = enrollment start 01/20/95, Basal Cell, 18 patients, 54 lesions, IT 0.5 to 3 Units
[3] = enrollment start 01/20/95, Kaposi Sarcoma, 1 patient, 4 lesions, IT 1 to 2 Units
[4] = enrollment start 01/20/95, Met. Melanoma, 10 patients, 84 lesions, IT 0.2 to 2 Units
[5] = enrollment start 01/20/95, Squamous Cell, 1 patient, 1 lesion, IT 1.5 Units
[6] = enrollment start 01/20/95, Summary, 30 patients, 146 lesions
[7] = enrollment start 02/18/94, Basal Cell, 2 patients, 6 lesions, IV 22 to 23 Units
[8] = enrollment start 02/18/94, Met. Breast Adenocarcinoma, 1 patient, 2 lesions, IV 17 Units
[9] = enrollment start 02/18/94, Met. Melanoma, 3 patients, 10 lesions, IV 19 to 23 Units
[10] = enrollment start 08/01/96, Basal Cell, 7 patients, 8 lesions, IT 0.8 to 0.64 Units
[11] = enrollment start 08/01/96, Summary, 7 patients, 8 lesions
[12] = Adenocarcinoma, 2 patients, 2 lesions, IT 2 to 8 Units
[13] = Squamous Cell, 7 patients, 7 lesions, IT 1 to 16 Units

bleomycin sulfate
Tumor Response CR % [1, 2]: 94% | Tumor Response NR % [1, 2]: 0% | Tumor Response PR % [1, 2]: 9% | Tumor Response CR % [1, 3]: 100% | Tumor Response NR % [1, 3]: 0% | Tumor Response PR % [1, 3]: 0% | Tumor Response CR % [1, 4]: 91% | Tumor Response NR % [1, 4]: 2% | Tumor Response PR % [1, 4]: 9% | Tumor Response CR % [1, 5]: 0% | Tumor Response NR % [1, 5]: 0% | Tumor Response PR % [1, 5]: 100% | Tumor Response CR % [1, 6]: 89% | Tumor Response NR % [1, 6]: 1% | Tumor Response PR % [1, 6]: 10% | Tumor Response CR % [1, 7]: 17% | Tumor Response NR % [1, 7]: 0% | Tumor Response PR % [1, 7]: 83% | Tumor Response CR % [1, 8]: 100% | Tumor Response NR % [1, 8]: 0% | Tumor Response PR % [1, 8]: 0% | Tumor Response CR % [1, 9]: 30% | Tumor Response NR % [1, 9]: 50% | Tumor Response PR % [1, 9]: 20% | Tumor Response CR % [1, 10]: 67% | Tumor Response NR % [1, 10]: 0% | Tumor Response PR % [1, 10]: 33% | Tumor Response CR % [1, 11]: 67% | Tumor Response NR % [1, 11]: 0% | Tumor Response PR % [1, 11]: 33% | Tumor Response CR % (Head and Neck Cancer; [12]): 0% | Tumor Response NR % (Head and Neck Cancer; [12]): 100% | Tumor Response PR % (Head and Neck Cancer; [12]): 100% | Tumor Response CR % (Head and Neck Cancer; [13]): 43% | Tumor Response NR % (Head and Neck Cancer; [13]): 29% | Tumor Response PR % (Head and Neck Cancer; [13]): 29% | Response Status (Head and Neck Cancer; Subject 1/J-S, first response (week 2)): PR (Partial Response (PR): 50% or greater reduction in tumor volume.) | Response Status (Head and Neck Cancer; Subject 1/J-S, second response (week 8)): CR | Time to Response (Week) (Head and Neck Cancer; Subject 1/J-S, to CR): 8 Week | Time to Response (Week) (Head and Neck Cancer; Subject 1/J-S, to PR): 2 Week | Response Status (Head and Neck Cancer; Subject 2/G-C): PR (Partial Response (PR): 50% or greater reduction in tumor volume.) | Time to Response (Week) (Head and Neck Cancer; Subject 2/G-C): 4 Week | Response Status (Head and Neck Cancer; Subject 3/L-O): CR | Time to Response (Week) (Head and Neck Cancer; Subject 3/L-O): 3 Week | Response Status (Head and Neck Cancer; Subject 4/G-R, first response (week 4)): PR (Partial Response (PR): 50% or greater reduction in tumor volume.) | Response Status (Head and Neck Cancer; Subject 4/G-R, second response (week 9)): CR | Time to Response (Week) (Head and Neck Cancer; Subject 4/G-R, to CR): 9 Week | Time to Response (Week) (Head and Neck Cancer; Subject 4/G-R, to PR): 4 Week | Response Status (Head and Neck Cancer; Subject 5/R-H, segmented treatment): NR** (No Response (NR): less than 50% reduction in tumor volume.) | Response Status (Head and Neck Cancer; Subject 6/C-B): PR (Partial Response (PR): 50% or greater reduction in tumor volume.) | Time to Response (Week) (Head and Neck Cancer; Subject 6/C-B): 2 Week | Response Status (Head and Neck Cancer; Subject 7/C-J, segmented treatment): NR** (No Response (NR): less than 50% reduction in tumor volume.) | Response Status (Head and Neck Cancer; Subject 8/L-J): PR (Partial Response (PR): 50% or greater reduction in tumor volume.) | Time to Response (Week) (Head and Neck Cancer; Subject 8/L-J): 4 Week | Time to Response (Week) (Head and Neck Cancer; Subject 9/J-T): 7 Week | Response Status (Head and Neck Cancer; Subject 9/J-T, segmented treatment): PR** (Partial Response (PR): 50% or greater reduction in tumor volume.) | subjects with a complete response (Head and Neck Cancer; Subject No. 1, 3 and 4, of 9 subjects): Three | subjects with a partial response (Head and Neck Cancer; Subject No. 2, 6, 8 and 9, of 9 subjects): four | subjects with no response (Head and Neck Cancer; Subject No. 5 and 7, of 9 subjects): two | Tumor Response CR % (Head and Neck Cancer; Summary, 9 patients, 9 lesions): 33% | Tumor Response NR % (Head and Neck Cancer; Summary, 9 patients, 9 lesions): 22% | Tumor Response PR % (Head and Neck Cancer; Summary, 9 patients, 9 lesions): 44% | subjects who died prior to reaching week 12 (Head and Neck Cancer; due to progressive disease or complications unrelated to study treatment (Subject No. 2, 5 and 7)): Three

B1: neocarcinostatin (protein, UniProt P0A3R9 35-147, looked up)
Neocarzinostatin: AAPTATVTPSSGLSDGTVVKVAGAGLQAGTAYDVGQCAWVDTGVLACNPADFSSVTADANGSASTSLTVRRSFEGFLFDGTRWGTVDCTTAACQVGLSDAAGNGPEGVAISFN
post-pulse versus pre-pulse administration (Panc-3; comparison of FIGS. 11a and 11b): more effective than pre-pulse administration | final vs initial tumor volume (Panc-3; post-pulse injection, day 13, mice ID 1, 2, 4 and 7 of 7, appeared to be due to edema): an increase in tumor volume was observed | tumor volume (Panc-3; post-pulse injection, day 23, separate group of 5 mice): all mice showed a marked reduction in tumor volume | reduction of tumor size (Panc-3; pre-pulse dosing): not effective in reducing tumor size at all
